The source of these data is patent US20070276034A1, “Compounds, compositions and methods for the treatment of synucleinopathies” (priority 2002, published 2007).

Common to all, as to format: biochemical
Assay [1] has as its target T1, monomeric Aβ 1-42 (Homo sapiens, UniProt P05067).
T1 construct: purchased Bachem Inc
Put plainly: SDS-PAGE/Western blot of Aβ 1-42 after incubation with compounds. Particulars: 25 μM pre-fibrillized Aβ 1-42, 37° C., 3 days, 0.2 μm filtrate, antibody 6E10. How it is done:
In this latter study, triplicate samples of pre-fibrillized Aβ 1-42 (25 μM) was incubated at 37° C. for 3 days, alone or in the presence of the compounds or EDTA. Five micrograms of each sample was then filtered through a 0.2 μm filter. Protein recovered from the filtrate was then loaded, and ran on a 10-20% Tris-Tricine SDS-PAGE, blotted to nitrocellulose and detected using an Aβ-antibody (clone 6E10; Senetek).
A general note: Immunoblotting shows a protein as a band on a membrane.

Assay [2] deals with T2, Aβ 1-42 fibrils (Homo sapiens, UniProt P05067).
T2 construct: purchased Bachem Inc
T2 sequence (P05067 672-713): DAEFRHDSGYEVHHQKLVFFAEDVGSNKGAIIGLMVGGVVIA
Description: Circular dichroism spectroscopy of Aβ 1-42 fibrils. How it is done:
Circular dichroism (CD) spectroscopy is a method that can be used to determine the effects of test compounds to disrupt the secondary structure conformation of amyloid fibrils. In one study, as described in this example, circular dichroism spectroscopy was used to determine the effects of different compounds of the invention on β-sheet conformation of Aβ 1-42 fibrils. For this study, Aβ 1-42 (Bachem Inc., Torrance, Calif.) was first dissolved in a 2 mM NaOH solution, maintaining the pH of these solutions above 10. […] Aβ 1-42 was then incubated at 37° C. in the absence or presence of different compounds at an Aβ:test compound wt/wt ratios of 1:0.1, 1:1 and 1:10. After 3 days of incubation, CD spectra were recorded on a Jasco 810 spectropolarimeter (Easton, Md.). All CD spectra were collected with 0.05 cm quartz cells. Wavelength traces were scanned from 190-260 nm at 0.5 nm increments with a bandwidth of 5 nm, at a scan speed of 10 nm/minute, a response time of 32 seconds, and a data pitch of 0.5 nm. The whole system was equilibrated and continuously flushed with nitrogen at 10 ml/minute. […] Ellipticity in degrees was converted to MRE ([Q]; molar residue ellipticity) using the formula [Q]=100•[…]; where Q is the ellipticity in degrees; […]
A general note: CD spectra are sensitive to the conformation of chiral molecules.

Assay [3] deals with T3, Wild-type α-synuclein (Homo sapiens, UniProt P37840).
T3 construct: purchased rPeptide (Athens, Ga., USA)
Put plainly: Circular dichroism spectroscopy - conversion of α-synuclein to β-sheet-rich structure. Particulars: for inhibition of conversion of α-synuclein to a β-sheet-rich structure (in words): 48 hours, 1 mg/ml compound (FIG. 13D). How it is done:
For this purpose, α-synuclein was obtained from rPeptide (Athens, Ga., USA) as a lyophilized salt in 1 mg aliquots. Buffer components and other solvents were obtained from Sigma as A.C.S. Reagent grade or higher. Wild-type α-synuclein was dissolved in a buffer containing 9.5 mM phosphate and 139.7 mM potassium chloride, adjusted to pH 7.4. […] Aliquots of the solutions were taken at the appropriate time point for CD spectral analysis. CD spectra were acquired on a Jasco J-810 spectropolarimeter using a 0.1 cm path length cell. All spectra were recorded with a step size of 0.1 nm, a bandwidth of 1 nm, and an α-synuclein concentration of 0.1 mg/ml. The spectra were trimmed at the shortest wavelength which still provided a dynode voltage less than […]. The trimmed spectra were then subjected to a data processing routine beginning with noise reduction by Fourier transform followed by subtraction of a blank spectrum (compound or vehicle only without α-synuclein). These blank corrected spectra were then zeroed at 260 nm and the units converted from millidegrees to specific ellipticity. Percent β-sheet was determined from processed spectra by subtracting the ellipticity minimum value at approximately 218 nm from the maximum value observed at approximately 197 nm and referencing to a scale normalized to nearly fully folded and unfolded reference values, consistent with previous reports (Ramirez-Alvarado et al., J. Mol. […] Andersen et al., J. Am. Chem. […] These percent β-sheet values were then used to provide the respective relative % inhibition induced by the compounds.

Assay [4] concerns the target T2, Aβ 1-42 fibrils. Description: Congo red binding assay with Aβ 1-42 fibrils. Particulars: for % Inhibition Aβ (result ± S.D.), Congo red binding: 3-day incubation. How it is done:
In the Congo red binding assay the ability of a test compound to alter amyloid (in this case, Aβ) binding to Congo red is quantified. In this assay, Aβ 1-42 and test compounds were incubated for 3 days and then vacuum filtered through a 0.2 μm filter. The amount of Aβ 1-42 retained in the filter was then quantitated following staining of the filter with Congo red. After appropriate washing of the filter, any lowering of the Congo red color on the filter in the presence of the test compound (compared to the Congo red staining of the amyloid protein in the absence of the test compound) was indicative of the test compound's ability to diminish/alter the amount of aggregated and congophilic Aβ.
In one study, the ability of Aβ fibrils to bind Congo red in the absence or presence of increasing amounts of the compounds or EDTA (at Aβ:test compound weight ratios of 1:1, 1:0.1, 1:0.01 or 1:0.001) was determined.

Where [5] appears, read: Aβ:test compound wt/wt ratio 1:0.001.
Where [6] appears, read: Aβ:test compound wt/wt ratio 1:0.1.
Where [7] appears, read: Aβ:test compound wt/wt ratio 1:1.

T1 sequence (P05067 672-713): as above

For the compound `O=C(Nc1ccc(O)c(O)c1)c1ccc(O)c(O)c1` [Compound 51, 3,4-dihydroxybenzoic acid 3,4-dihydroxyanilide], the “detection of Aβ 1-42 monomers (~4 kilodalton band) on Western blot” value (“detection of Aβ 1-42 monomers” for short) in assay [1] is “not detected”. Also, the “disruption of β-sheet structure in Aβ 1-42 fibrils (CD minima at 218 nm)” value in assay [2] (3 days co-incubation, 25 μM Aβ 1-42 (FIG. 1, FIG. 2)) is recorded as “marked disruption of β-sheet structure”. Moreover, the “disruption of β-sheet structure of Aβ 1-42 fibrils (CD minima at 218 nm)” value in assay [2] (Aβ:test compound wt/wt ratio of 1:10 (FIG. 3)) is listed as “completely disrupt the β-sheet structure”. Further, in assay [2] (Aβ:test compound wt/wt ratios of 1:0.1, 1:1 and 1:10 (FIG. 3)), the “dose-response of disruption of β-sheet structure of Aβ 1-42 fibrils (CD minima at 218 nm)” value is “dose-dependent decrease in the minima”. For the same compound, the “conversion of natively unfolded α-synuclein to a β-sheet-rich structure (in words)” value in assay [3] (1 mg/ml α-synuclein, 1 mg/ml compound, 24 hours, 37°) is listed as “prevents the conversion of natively unfolded α-synuclein to a β-sheet-rich structure”. In assay [3] (1.0 mg/ml α-synuclein, 24 hours incubation at 37° C.), the “dose sufficient to completely eliminate the conversion of α-synuclein to a β-sheet-rich structure” value turned out to be 0.25 mg/mL. The IC50 in assay [3] (1.0 mg/ml α-synuclein, 24 hours incubation at 37° C., read-out: dose sufficient to inhibit the conversion of α-synuclein to a β-sheet-rich structure by approximately 50% (converted)) is 574 µM. The “inhibition of conversion of α-synuclein to a β-sheet-rich structure (in words)” value (from here on “inhibition of conversion of α-synuclein”) in assay [3] is given as “completed inhibited conversion”. Also, the “β-sheet-rich structure of α-synuclein” value was not above 45% in assay [3] (compound added 24 hours after the beginning (t=24 hr), up to 144 hours at 37° C.) and “approximately 10%” in assay [3] (compound added at the beginning (t=0 hr), sampled up to 144 hours).
For the compound `O=C(Nc1ccc(O)c(O)c1)Nc1ccc(O)c(O)c1` [Compound 76, 1,3-bis(3,4-dihydroxyphenyl)urea], the “detection of Aβ 1-42 monomers” value in assay [1] is “not detected”. The “inhibition of conversion of α-synuclein” value in assay [3] was “completed inhibited conversion”.
Take `Oc1ccc(Cc2ccc(O)c(O)c2)cc1O` [Compound 3, 3,4,3′,4′-tetrahydroxydiphenylmethane]: the “% Inhibition Aβ (result ± S.D.), Congo red binding” value in assay [4] (setting [5]) amounted to 1.7 ± 4.21%; in assay [4] (setting [6]), 35.7 ± 3.29%; in assay [4] (setting [7]), 91.6±5.19%.
As for `O=C(NCc1ccc(O)c(O)c1)C(=Cc1ccc(O)c(O)c1)NC(=O)c1ccc(O)c(O)c1` [Compound 21, α-(3,4-dihydroxybenzamido)-3,4-dihydroxycinnamic acid 3,4-dihydroxybenzyl amide], in assay [1], the “detection of Aβ 1-42 monomers” value is given as “not detected”.
With `O=C(Nc1ccc(O)c(O)c1)C(=O)Nc1ccc(O)c(O)c1` [Compound 63, oxalic acid bis(3,4-dihydroxyanilide)], in assay [3], the “inhibition of conversion of α-synuclein” value is recorded as “modest inhibitory effects”.
As to `O=C(O)CN(CCN(CC(=O)O)CC(=O)O)CC(=O)O` [EDTA, reference compound], in assay [1], the “detection of Aβ 1-42 monomers” value is “detected as a ˜4 kilodalton band”. Besides, the “% Inhibition Aβ (result ± S.D.), Congo red binding” value turned out to be 7.91 ± 3.61% in assay [4] (setting [5]), 0.0 ± 3.91% in assay [4] (Aβ:test compound wt/wt ratio 1:0.01), 3.6 ± 8.68% in assay [4] (setting [6]) and 1.1 ± 7.02% in assay [4] (setting [7]). Moreover, the “inhibition of Aβ 1-42 fibril binding to Congo red (in words)” value in assay [4] (all concentrations tested (ratios 1:1 to 1:0.001), 3 days) is listed as “no significant inhibition”.
Consider `O=C(c1ccc(O)c(O)c1)N1CCN(C(=O)c2ccc(O)c(O)c2)CC1` [Compound 23, 1,4-bis(3,4-dihydroxybenzoyl)piperazine], for which, in assay [3], the “inhibition of conversion of α-synuclein” value is “modest inhibitory effects”.
